Source: patent US5747535A, “Selective thrombin inhibitors” (priority 1995, dated 1998)
Like-named read-outs stand apart in the source and are kept apart here.

What was measured:
[1] = Test 2: Pharmacokinetic test in rats; type: in vivo, rat; settings: for concentration at 0.05 h: 3 min; for concentration at 0.5 h: 30 min; for concentration at 0.75 h: 45 min; for concentration at 1 h: 60 min; for concentration at 1.5 h: 90 min; for concentration at 2 h: 120 min; for concentration at 3 h: 180 min; for bioavailability: oral route
Method: Male rats and dogs were fasted for 24 hours and used as the experimental animals. […] Bloods were collected from the animals at given time intervals and then immediately mixed with methanol and zinc sulfate. Finally, the upper layer of the mixture was quantitatively analyzed at ultraviolet wavelength of 231 nm to measure the drug concentration in blood by HPLC.

bovine thrombin = bovine thrombin (Bos taurus, UniProt P00735); assay: biochemical;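 note: bovine thrombin cleaving the chromogenic substrate Chromozym TH, with para-nitroaniline release tracked as absorbance change over time to give initial rates, in Tris buffer at pH 7.8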
From the text: The thrombin inhibitory effect of the compound of formula (I) according to the present invention can be identified by determination of a dissociation constant Ki represented by the following equation according to the known method described in literature [see, Methods in enzymology V. 80,p341-361;Biochemistry 27,p2144-2151 (1988)].
The dissociation constant Ki denotes the degree of dissociation of the enzyme-thrombin inhibitor complex. […] Such dissociation constant can be determined by reacting thrombin with a certain substrate which develops a color when it is hydrolyzed by the action of thrombin, and then measuring the degree of color development as a function of time by means of spectrophotometry.
Chromozym TH is hydrolyzed by thrombin to produce yellow para-nitroaniline. Accordingly, the amount of yellow para-nitroaniline thus produced can be measured as the change of absorbance in the course of time to determine the thrombin inhibitory activity of the compound according to the present invention. That is, the enzyme activity can be determined from the rate of change in absorbance and then can be directly connected with the ability of the thrombin inhibitor to inhibit the enzyme activity (see, Methods in Enzymology, V. 80,p341-361,Biochemistry 27, p2144-2151, 1988).
The ability of the compound according to the present invention to inhibit the thrombin activity was determined as described in the following.
1160 μl of 0.1M tris buffered solution (pH 7.8) containing 150 mM NaCl and 0.1% PEG 8000 (polyethylene glycol, molecular weight about 8,000) was added to a 1.5 ml cuvette. Chromozym TH was dissolved in dimethylsulfoxide(DMSO) in the concentration of 10mM and the resulting solution was diluted with the said tris buffered solution to the concentration of 0.1 mM, which was then used as the substrate solution. 225 μl of 0.1 mM substrate solution thus prepared was added to the cuvette. The inhibitor solution was prepared by dissolving the thrombin inhibitor compound according to the present invention in dimethylsulfoxide in the concentration of 10 mg/ml and then diluting the resulting solution with the said tris buffered solution to the concentration of 0.1 mg/ml, 0.01 mg/ml, 0.001 mg/ml and 0.0001 mg/ml. The resulting inhibitor solution was taken in an amount corresponding to 0 to 10 μg as the inhibitor and then diluted with tris buffered solution to make the total volume of 100 μl which was added to the cuvette.
15 μl of bovine thrombin solution dissolved in above tris buffered solution in the concentration of 0.1 mg/ml was added to the cuvette to initiate the enzyme hydrolysis reaction. The amount of para-nitroaniline produced for 2 minutes from the moment the enzyme is added was monitored by measuring the absorbance at 381 nm. The continuous spectrum of absorbance to reaction time was depicted. The same experiments were conducted for various concentration of the inhibitor to obtain the continuous spectrum.
In each spectrum, the initial velocity Vi was obtained from the slope within initial 30 seconds of the reaction time and then a graph for the reciprocal value of initial velocity(1/Vi) to the inhibitor concentration was depicted. From the graph, the primary equation satisfying the points depicted thereon was obtained and then the value Ki was calculated from the x intercept of the primary equation using the enzyme reaction equation.
The velocity constant Ks was obtained using the same solution in the same concentration as in determination of the value Ki but using the following experimental procedure.

[2] = rat, blood, iv, 10 mg/kg, Rat-1, i.v. 10 mg/kg, read-out: Blood concentration
[3] = rat, blood, iv, 10 mg/kg, Rat-2, i.v. 10 mg/kg, read-out: Blood concentration
[4] = rat, blood, iv, 10 mg/kg, Rat-3, i.v. 10 mg/kg, read-out: Blood concentration
[5] = rat, blood, iv, 10 mg/kg, rats, i.v. 10 mg/kg, read-out: Blood concentration, Average(+error)
[6] = rat, blood, po, 15 mg/kg, Rat-1, oral 15 mg/kg, read-out: Blood concentration
[7] = rat, blood, po, 15 mg/kg, Rat-2, oral 15 mg/kg, read-out: Blood concentration
[8] = rat, blood, po, 15 mg/kg, Rat-3, oral 15 mg/kg, read-out: Blood concentration
[9] = rat, blood, po, 15 mg/kg, rats, oral 15 mg/kg, read-out: Blood concentration, Average(+error)

concentration at 1 min [1, 2]: 31500 ng/mL | concentration at 0.05 h [1, 2]: 8100 ng/mL | concentration at 5 min [1, 2]: 3980 ng/mL | concentration at 10 min [1, 2]: 1910 ng/mL | concentration at 20 min [1, 2]: 918 ng/mL | concentration at 0.5 h [1, 2]: 631 ng/mL | concentration at 0.75 h [1, 2]: 355 ng/mL | concentration at 1 h [1, 2]: 270 ng/mL | concentration at 1.5 h [1, 2]: 168 ng/mL | concentration at 2 h [1, 2]: 76 ng/mL | concentration at 3 h [1, 2]: 87 ng/mL | concentration at 1 min [1, 3]: 23000 ng/mL | concentration at 0.05 h [1, 3]: 6770 ng/mL | concentration at 5 min [1, 3]: 3070 ng/mL | concentration at 10 min [1, 3]: 1830 ng/mL | concentration at 20 min [1, 3]: 898 ng/mL | concentration at 0.5 h [1, 3]: 600 ng/mL | concentration at 0.75 h [1, 3]: 408 ng/mL | concentration at 1 h [1, 3]: 242 ng/mL | concentration at 1.5 h [1, 3]: 166 ng/mL | concentration at 2 h [1, 3]: 97 ng/mL | concentration at 3 h [1, 3]: 73 ng/mL | concentration at 1 min [1, 4]: 32000 ng/mL | concentration at 0.05 h [1, 4]: 7880 ng/mL | concentration at 5 min [1, 4]: 4220 ng/mL | concentration at 10 min [1, 4]: 1930 ng/mL | concentration at 20 min [1, 4]: 883 ng/mL | concentration at 0.5 h [1, 4]: 591 ng/mL | concentration at 0.75 h [1, 4]: 398 ng/mL | concentration at 1 h [1, 4]: 289 ng/mL | concentration at 1.5 h [1, 4]: 184 ng/mL | concentration at 2 h [1, 4]: 119 ng/mL | concentration at 3 h [1, 4]: 78 ng/mL | concentration at 1 min [1, 5]: 28800 ng/mL | concentration at 0.05 h [1, 5]: 7590 ng/mL | concentration at 5 min [1, 5]: 3760 ng/mL | concentration at 10 min [1, 5]: 1890 ng/mL | concentration at 20 min [1, 5]: 900 ng/mL | concentration at 0.5 h [1, 5]: 607 ng/mL | concentration at 0.75 h [1, 5]: 387 ng/mL | concentration at 1 h [1, 5]: 267 ng/mL | concentration at 1.5 h [1, 5]: 173 ng/mL | concentration at 2 h [1, 5]: 97 ng/mL | concentration at 3 h [1, 5]: 79 ng/mL | concentration at 5 min [1, 6]: 1610 ng/mL | concentration at 10 min [1, 6]: 1480 ng/mL | concentration at 20 min [1, 6]: 569 ng/mL | concentration at 0.5 h [1, 6]: 232 ng/mL | concentration at 0.75 h [1, 6]: 145 ng/mL | concentration at 1 h [1, 6]: 143 ng/mL | concentration at 1.5 h [1, 6]: 66 ng/mL | concentration at 2 h [1, 6]: 34 ng/mL | concentration at 3 h [1, 6]: 24 ng/mL | concentration at 5 min [1, 7]: 822 ng/mL | concentration at 10 min [1, 7]: 686 ng/mL | concentration at 20 min [1, 7]: 166 ng/mL | concentration at 0.5 h [1, 7]: 82 ng/mL | concentration at 0.75 h [1, 7]: 107 ng/mL | concentration at 1 h [1, 7]: 123 ng/mL | concentration at 1.5 h [1, 7]: 186 ng/mL | concentration at 3 h [1, 7]: 238 ng/mL | concentration at 5 min [1, 8]: 570 ng/mL | concentration at 10 min [1, 8]: 384 ng/mL | concentration at 20 min [1, 8]: 97 ng/mL | concentration at 0.5 h [1, 8]: 113 ng/mL | concentration at 0.75 h [1, 8]: 112 ng/mL | concentration at 1 h [1, 8]: 110 ng/mL | concentration at 1.5 h [1, 8]: 119 ng/mL | concentration at 2 h [1, 8]: 71 ng/mL | concentration at 3 h [1, 8]: 64 ng/mL | concentration at 5 min [1, 9]: 1000 ng/mL | concentration at 10 min [1, 9]: 850 ng/mL | concentration at 20 min [1, 9]: 255 ng/mL | concentration at 0.5 h [1, 9]: 143 ng/mL | concentration at 0.75 h [1, 9]: 121 ng/mL | concentration at 1 h [1, 9]: 125 ng/mL | concentration at 1.5 h [1, 9]: 124 ng/mL | concentration at 2 h [1, 9]: 53 ng/mL | concentration at 3 h [1, 9]: 109 ng/mL | bioavailability ([1]; rat, blood, rats, read-out: Bioavailability): 15% | half-life ([1]; rat, blood, rats, read-out: Elimination Half-life, Average + (error)): 47 min | bioavailability ([1]; rats): 15 (2) % | Ki (bovine thrombin): 3.8 nM
Structure (SMILES): CN(C(=O)[C@H](Cc1ccc(C(=N)NN)cc1)NS(=O)(=O)c1ccc2ccccc2c1)C1CCCC1 [Example 1, (S)-N-cyclopentyl-N-methyl-3-(4-amidrazonophenyl)-2-(2-naphthylsulfonylamino)propionamide]
distribution and disappearance after intravenous injection ([1]; rats, intravenous): rapidly distributed and then slowly disappeared
